Laboratory results published in patent US5834487A, “Inhibition of 26S and 20S proteasome by indanones” (CV Therapeutics, priority 1996, dated 1998).
Converted amounts (≈) assume the structure as drawn.

The molecules below were run against T1, 20S catalytic subunit of the proteasome (multicatalytic proteinase complex) (Bos taurus, UniProt Q32KL2) (assay: 20S proteasome chymotryptic activity, fluorogenic peptide cleavage). Settings: 50 μM succinyl-leu-leu-val-tyr-7-amino-4-methyl coumarin, 15 minutes at 37° C, pH7.5.
T1 construct: was purified to homogeneity from bovine brain according to published methods; from tissue; host or cells: bovine brain
Type: biochemical, bovine
Experimental: Compounds of this invention prepared according to the method of Example 1 were tested as follows. The 20S catalytic subunit of the proteasome (also known as the multicatalytic proteinase complex) was purified to homogeneity from bovine brain according to published methods (Wilk S. and Orlowski, M, 40 842 J. Neurochem (1983)). The chymotryptic activity of the complex is measured by the increase in fluorescence following cleavage of the substrate peptide succinyl-leucine-leucine-valine-tyrosine-7-amino-4-methyl coumarin. The standard in vitro assay consists of 2 μg 20S proteasome, 0.1-100 μg/ml proteasome inhibitor in 200 μl 50 mM HEPES, containing 0.1% sodium dodecyl sulphate, pH7.5. The proteolytic reaction is initiated by the addition of 50 μM fluorogenic peptide substrate and allowed to progress for 15 minutes at 37° C. The reaction is terminated by the addition of 100 μl of 100 mM acetate buffer, pH4.0. The rate of proteolysis is directly proportional to the amount of liberated aminomethylcoumarin which is measured by fluorescent spectroscopy (EX 370 nm, EM 430 nm).

Row | Compound | IC50 [µg/mL]
1 | COc1ccc2c(c1)C(CC(=O)NC(CC(C)C)C(=O)NC(Cc1c[nH]c3ccccc13)C(N)=O)CC2=O (mixture of isomers) [Compound 136] | > 10
2 | COc1ccc2c(c1)C(CC(=O)NC(CC(C)C)C(=O)NC(CCC(N)=O)C(N)=O)CC2=O (mixture of isomers) [Compound 137] | > 10
3 | COc1ccc2c(c1)C(CC(=O)NC(CC(C)C)C(=O)NC(CCCCN)C(N)=O)CC2=O (mixture of isomers) [Compound 138] | > 10
4 | CCCC(NC(=O)C(CC(C)C)NC(=O)CC1CC(=O)c2ccc(OC)cc21)C(N)=O (mixture of isomers) [Compound 139] | > 10
5 | COc1ccc2c(c1)C(CC(=O)NC(CC(C)C)C(=O)NC(C(N)=O)c1ccccc1)CC2=O (mixture of isomers) [Compound 140] | > 10
6 | COc1ccc2c(c1)C(CC(=O)NC(CC(C)C)C(=O)NC(CO)C(N)=O)CC2=O (mixture of isomers) [Compound 141] | > 10
7 | CC(C)CC(NC(=O)CC1CC(=O)c2ccccc21)C(=O)NC(CC(C)C)C(=O)NCC(N)=O (mixture of isomers) [Compound 159] | > 10
8 | COc1ccc2c(c1)C(CC(=O)N1CCCC1CO)CC2=O (mixture of isomers) [Compound 164] | > 50
9 | COc1ccc2c(c1)C(CC(=O)NC(CO)C(O)c1ccccc1)CC2=O (mixture of isomers) [Compound 165] | > 50
10 | COc1ccc2c(c1)C(CC(=O)NC(CC(C)C)C(=O)NC(CC(C)C)C(=O)NC(C)(C)C(N)=O)CC2=O (mixture of isomers) [Compound 170] | > 10
11 | COc1ccc2c(c1)C(CC(=O)NC(CC(C)C)C(=O)NC(CC(C)C)C(=O)O)CC2=O (mixture of isomers) [Compound 171] | > 10
12 | COc1ccc2c(c1)C(CC(=O)NC(CC(C)C)C(=O)NC(CC(C)C)C(=O)O)CC2=O (mixture of isomers) [Compound 172] | > 10
13 | COc1ccc2c(c1)C(CC(=O)NC(CC(C)C)C(=O)NC(CC(C)C)C(=O)N1CCOCC1)CC2=O (mixture of isomers) [Compound 174] | > 10
14 | COc1ccc2c(c1)C(CC(=O)NC(CC(C)C)C(=O)NC(CC(C)C)C(=O)N1CCCCC1)CC2=O (mixture of isomers) [Compound 175] | > 10
15 | COc1ccc2c(c1)C(CC(=O)NC(CC(C)C)C(=O)NC(CC(C)C)C(=O)N1CCCC1)CC2=O (mixture of isomers) [Compound 176] | > 10
16 | COc1ccc2c(c1)C(CC(=O)NC(CC(C)C)C(=O)NC(CC(C)C)C(=O)N(Cc1ccccc1)Cc1ccccc1)CC2=O (mixture of isomers) [Compound 177] | 1
17 | COc1ccc2c(c1)C(CC(=O)NC(CC(C)C)C(=O)NC(CC(C)C)C(=O)NCCO)CC2=O (mixture of isomers) [Compound 178] | > 10
18 | COc1ccc2c(c1)C(CC(=O)NC(CC(C)C)C(=O)NC(CC(C)C)C(=O)N(C)Cc1ccccc1)CC2=O (mixture of isomers) [Compound 179] | > 10
19 | COc1ccc2c(c1)C(CC(=O)NC(CC(C)C)C(=O)NC(CC(C)C)C(=O)N(C)Cc1ccccc1)CC2=O (mixture of isomers) [Compound 180] | > 10
20 | COc1ccc2c(c1)C(CC(=O)NC(CC(C)C)C(=O)NC(CC(C)C)C(=O)Nc1ccccc1)CC2=O (mixture of isomers) [Compound 184] | > 10
21 | COc1ccc2c(c1)C(CC(=O)NC(CC(C)C)C(=O)NC(CC(C)C)C(=O)NCCc1ccccc1)CC2=O (mixture of isomers) [Compound 185] | > 10

Row | Compound | IC50 [µg/mL]
22 | COc1ccc2c(c1)C(CC(=O)NC(CC(C)C)C(=O)NC(CC(C)C)C(=O)NCCCc1ccccc1)CC2=O (mixture of isomers) [Compound 186] | > 10
23 | COc1ccc2c(c1)C(CC(=O)NC(CC(C)C)C(=O)NC(CC(C)C)C(=O)NCC1CCCCC1)CC2=O (mixture of isomers) [Compound 188] | > 10
24 | COc1ccc2c(c1)C(CC(=O)NC(CC(C)C)C(=O)NC(CC(C)C)C(=O)NC13CC4CC(CC(C4)C1)C3)CC2=O (mixture of isomers) [Compound 190] | > 10
25 | COc1ccc2c(c1)C(CC(=O)NC(CC(C)C)C(=O)NC(CC(C)C)C(=O)N1CCc3ccccc3C1)CC2=O (mixture of isomers) [Compound 191] | > 10
26 | COc1ccc2c(c1)C(CC(=O)NC(CC(C)C)C(=O)NC(CC(C)C)C(=O)NCc1ccncc1)CC2=O (mixture of isomers) [Compound 192] | 10
27 | COc1ccc2c(c1)C(CC(=O)NC(CC(C)C)C(=O)NC(CC(C)C)C(=O)NCc1ccc([N+](=O)[O-])cc1)CC2=O (mixture of isomers) [Compound 195] | 10
28 | COc1ccc2c(c1)C(CC(=O)NC(CC(C)C)C(=O)NCc1ccccc1)CC2=O (mixture of isomers) [Compound 198] | > 10
29 | COc1ccc2c(c1)C(CC(=O)NC(CC(C)C)C(=O)N(Cc1ccccc1)Cc1ccccc1)CC2=O (mixture of isomers) [Compound 199] | > 10
30 | COc1ccc2c(c1)C(CC(=O)NC(CC(C)C)C(=O)NCCC(C)C)CC2=O (mixture of isomers) [Compound 200] | > 10
31 | COc1ccc2c(c1)C(CC(=O)Nc1ccc(I)cc1)CC2=O (racemic) [Compound 152] | > 10
32 | COc1ccc2c(c1)C(CC(=O)Nc1c(C)cccc1[N+](=O)[O-])CC2=O (racemic) [Compound 153] | > 10
33 | COc1ccc2c(c1)C(CC(=O)Nc1nc(C)cc(Cl)n1)CC2=O (racemic) [Compound 155] | > 10
34 | COc1ccc2c(c1)C(CC(=O)Nc1ccc(Cl)cn1)CC2=O (racemic) [Compound 156] | > 10
35 | COc1ccc2c(c1)C(CC(=O)Nc1ccc(Cl)c(Cl)c1)CC2=O (racemic) [Compound 157] | > 10
36 | COc1ccc2c(c1)C(CC(=O)Nc1ccnc(S)n1)CC2=O (racemic) [Compound 158] | > 10
37 | COc1ccc2c(c1)C(CC(=O)N1CCc3ccccc31)CC2=O (racemic) [Compound 160] | > 10
38 | COc1ccc2c(c1)C(CC(=O)NCCCc1ccccc1)CC2=O (racemic) [Compound 161] | > 50
39 | COc1ccc(NC(=O)CC2CC(=O)c3ccc(OC)cc32)cc1 (racemic) [Compound 162] | > 50
40 | COc1ccc2c(c1)C(CC(=O)NCc1ccc3c(c1)OCO3)CC2=O (racemic) [Compound 163] | > 50
41 | COc1ccc2c(c1)C(CC(=O)N(CCO)Cc1ccccc1)CC2=O (racemic) [Compound 166] | > 50
42 | COc1ccc2c(c1)C(CC(=O)N(C)C)CC2=O (racemic) [Compound 167] | > 50

Row | Compound | IC50 [µg/mL]
43 | COc1ccc2c(c1)C(CC(=O)Nc1ccccc1)CC2=O (racemic) [Compound 168] | > 50
44 | COCCN(CCOC)C(=O)CC1CC(=O)c2ccc(OC)cc21 (racemic) [Compound 169] | > 50
45 | COc1ccc2c(c1)C(CC(=O)N[C@@H](CC(C)C)C(=O)N[C@H](CC(C)C)C(=O)NCC(N)=O)CC2=O (single isomer, unassigned) [Compound 50] | 0.5 (≈ 0.995 µM)
46 | COc1ccc2c(c1)C(CC(=O)N[C@@H](CC(C)C)C(=O)N[C@H](CC(C)C)C(=O)NCC(N)=O)CC2=O (single isomer, unassigned) [Compound 51] | 0.5 (≈ 0.995 µM)
47 | COc1ccc2c(c1)C(CC(=O)NCc1ccccc1)CC2=O (stereo not shown) [Compound 38] | > 10
48 | COc1ccc2c(c1)C(CC(=O)N(Cc1ccccc1)Cc1ccccc1)CC2=O (stereo not shown) [Compound 39] | > 10
49 | COc1ccc2c(c1)C(CC(=O)NCC(=O)NCC(=O)NCC(N)=O)CC2=O (stereo not shown) [Compound 40] | > 10
50 | COc1ccc2c(c1)C(CC(=O)N(C(C)C)C(C)C)CC2=O (stereo not shown) [Compound 62] | > 10
51 | COc1ccc2c(c1)C(CC(=O)N1CCOCC1)CC2=O (stereo not shown) [Compound 63] | > 10
52 | COc1ccc2c(c1)C(CC(=O)N1CCCC1)CC2=O (stereo not shown) [Compound 64] | > 10
53 | COc1ccc2c(c1)C(CC(=O)NCCc1ccccc1)CC2=O (stereo not shown) [Compound 65] | > 10
54 | COc1ccc2c(c1)C(CC(=O)NCCCc1ccccc1)CC2=O (stereo not shown) [Compound 66] | > 10
55 | COc1ccc2c(c1)C(CC(=O)N1CCCCC1)CC2=O (stereo not shown) [Compound 67] | > 10
56 | CCN(CC)C(=O)CC1CC(=O)c2ccc(OC)cc21 (stereo not shown) [Compound 68] | > 10
57 | COc1ccc2c(c1)C(CC(=O)NC1CCC1)CC2=O (stereo not shown) [Compound 69] | > 10
58 | CCCCCCCNC(=O)CC1CC(=O)c2ccc(OC)cc21 (stereo not shown) [Compound 70] | > 10
59 | COCCCNC(=O)CC1CC(=O)c2ccc(OC)cc21 (stereo not shown) [Compound 71] | > 10
60 | COc1ccc2c(c1)C(CC(=O)NCCc1ccc(OC)c(OC)c1)CC2=O (stereo not shown) [Compound 72] | > 10
61 | COc1ccc2c(c1)C(CC(=O)N(C)Cc1ccccc1)CC2=O (stereo not shown) [Compound 73] | > 10
